In ChEMBL document CHEMBL1129820, “1,4-Bis-(2,3-epoxypropylamino)-9,10-anthracenedione and related compounds as potent antifungal and antimicrobial agents” (Bioorg Med Chem Lett, 1997):
In brackets after ≈: the same amount, converted by molar mass.

How the values were obtained:
Pseudomonas fluorescens [1] = test: The compound was evaluated for antibacterial activity against Pseudomonas fluorescence at pH 7.0; format: functional
Pseudomonas fluorescens [2] = test: The compound was evaluated for antibacterial activity against Pseudomonas fluorescence at pH 9.0; format: functional
Pseudomonas fluorescens [3] = test: The compound was evaluated for antibacterial activity against Pseudomonas fluorescence at pH 8.0; format: functional
Pseudomonas fluorescens [4] = test: The compound was evaluated for antibacterial activity against Pseudomonas fluorescence at pH 5.5; format: functional
Aureobasidium pullulans [5] = test: The compound was evaluated for antifungal activity against Aureobasidium pullulans at pH 7.5; format: functional
Pseudomonas fluorescens [6] = test: The compound was evaluated for antibacterial activity against the Pseudomonas fluorescence at pH 7.0; format: functional
Globisporangium ultimum = test: The compound was evaluated for antifungal activity against the fungi Pythium ultimum; format: functional, organism-based
Escherichia coli = test: The compound was evaluated for antibacterial activity against Escherichia coli at pH 7.0; format: functional
Pseudomonas aeruginosa = test: The compound was evaluated for antibacterial activity against Pseudomonas aeruginosa at pH 7.0; format: functional
Aspergillus niger [7] = test: The compound was evaluated for antifungal activity against Aspergillus niger at pH 7.5; format: functional
Staphylococcus aureus [8] = test: The compound was evaluated for antibacterial activity against Staphylococcus aureus at pH 7.0; format: functional
[9] = tested on: Dolichospermum flos-aquae; test: The compound was evaluated for antialgal activity against Anabaena flos-aquae; format: functional
[10] = tested on: Auxenochlorella pyrenoidosa; test: The compound was evaluated for antialgal activity against Chlorella pyrenoidosa; format: functional
Chaetomium globosum [11] = test: The compound was evaluated for antifungal activity against Chaetomium globosum at pH 7.5 (end point <0.25 p.p.m. in separate test); format: functional
Pseudomonas fluorescens [12] = test: The compound was evaluated for antibacterial activity against Pseudomonas fluorescence at pH 7.0 in trypticase soy broth medium; format: functional
Aureobasidium pullulans [13] = test: The compound was evaluated for antifungal activity against Aureobasidium pullulans at pH 7.5 (end point 25 p.p.m. in separate test); format: functional
Pseudomonas fluorescens [14] = test: The compound was evaluated for antibacterial activity against Pseudomonas fluorescence at pH 4.0 in trypticase soy broth medium; format: functional
Pseudomonas fluorescens [15] = test: The compound was evaluated for antifungal activity against Pseudomonas fluorescence in separate test(endopoint 0.25 p.p.m.) at pH 7.0; format: functional
Pseudomonas fluorescens [16] = test: The compound was evaluated for antibacterial activity against Pseudomonas fluorescence at pH 9.0 in trypticase soy broth medium; format: functional
Amorphotheca resinae [17] = test: The compound was evaluated for antifungal activity against Cladosporium resinae at pH 7.5 (end point <0.25 p.p.m. in separate test); format: functional
Talaromyces funiculosus = test: The compound was evaluated for antifungal activity against Penicillium funiculosum at pH 7.5 (end point 2.5 p.p.m. in separate test); format: functional
Aspergillus niger [18] = test: The compound was evaluated for antifungal activity against Aspergillus niger at pH 7.5 (end point 0.25 p.p.m. in separate test); format: functional
Phytophthora capsici = test: The compound was evaluated for antifungal activity against the fungi Phytophthora capsici; format: functional
Staphylococcus aureus [19] = test: The compound was evaluated for antifungal activity against Staphylococcus aureus in separate test(endopoint 0.25 p.p.m.) at pH 7.0; format: functional
Aureobasidium pullulans [20] = test: The compound was evaluated for antifungal activity against Aureobasidium pullulans at pH 7.5 (end point <0.25 p.p.m. in separate test); format: functional
Amorphotheca resinae [21] = test: The compound was evaluated for antifungal activity against Cladosporium resinae at pH 7.5 (end point 2.5 p.p.m. in separate test); format: functional
Chaetomium globosum [22] = test: The compound was evaluated for antifungal activity against Chaetomium globosum at pH 7.5 (end point 2.5 p.p.m. in separate test); format: functional
Pseudomonas fluorescens [23] = test: The compound was evaluated for antibacterial activity against Pseudomonas fluorescence at pH 4.0; format: functional

Q: With `O=C1c2ccccc2C(=O)c2c(NCC(Cl)CO)ccc(NCC(Cl)CO)c21` (stereo not given) as the compound, how does the MIC (Pseudomonas fluorescens [1]) read?
A: The MIC was 25 µg/mL (≈ 59.1 µM).

Q: And the MIC (Pseudomonas fluorescens [2])?
A: The MIC was 50 µg/mL (≈ 118 µM).

Q: What about the MIC (Pseudomonas fluorescens [3]) of the same compound?
A: Its MIC is 50 µg/mL (≈ 118 µM).

Q: What about the MIC (Pseudomonas fluorescens [4]) of the same compound?
A: Its MIC is > 100 µg/mL.

Q: What does the source list for `O=C1c2ccccc2C(=O)c2c(OCC3CO3)ccc(OCC3CO3)c21` (stereo not given)?
A: MIC (Aureobasidium pullulans [5]): > 250 µg/mL; MIC (Pseudomonas fluorescens [6]): 4 µg/mL (≈ 11.4 µM); EC50 (Globisporangium ultimum): 3.6 p.p.m.; MIC (Escherichia coli): > 250 µg/mL; MIC (Pseudomonas aeruginosa): > 250 µg/mL; MIC (Aspergillus niger [7]): > 250 µg/mL; MIC (Staphylococcus aureus [8]): > 250 µg/mL

Q: Which MIC [9] does the source give for `Cn1sc(Cl)cc1=O.Cn1sccc1=O` here?
A: The MIC was 0.1 µg/mL.

Q: And the MIC [10]?
A: The MIC was 0.3 µg/mL.

Q: How did the MIC (Chaetomium globosum [11]) turn out when `O=C1c2ccccc2C(=O)c2c(NCC3CO3)ccc(NCC3CO3)c21` (stereo not given) was run?
A: The MIC was 0.4 µg/mL (≈ 1.14 µM).

Q: What about the MIC (Pseudomonas fluorescens [1]) of the same compound?
A: The MIC was 0.05 µg/mL (≈ 0.143 µM).

Q: What about the MIC (Pseudomonas fluorescens [12]) of the same compound?
A: The MIC was 0.2 µg/mL (≈ 0.571 µM).

Q: And the MIC (Aureobasidium pullulans [13])?
A: Its MIC is 0.8 µg/mL (≈ 2.28 µM).

Q: And the MIC (Pseudomonas fluorescens [6])?
A: The MIC was < 0.13 µg/mL.

Q: What about the MIC (Pseudomonas fluorescens [14]) of the same compound?
A: Its MIC is 0.2 µg/mL (≈ 0.571 µM).

Q: And the EC50 (Globisporangium ultimum)?
A: Its EC50 is 0.03 p.p.m.

Q: What about the MIC (Escherichia coli) of the same compound?
A: The MIC was 250 µg/mL (≈ 714 µM).

Q: What about the MIC (Pseudomonas fluorescens [15]) of the same compound?
A: The MIC was 0.2 µg/mL (≈ 0.571 µM).

Q: And the MIC (Pseudomonas fluorescens [16])?
A: The MIC was 0.2 µg/mL (≈ 0.571 µM).

Q: And the MIC (Amorphotheca resinae [17])?
A: The MIC was 0.4 µg/mL (≈ 1.14 µM).

Q: And the MIC (Talaromyces funiculosus)?
A: The MIC was 0.8 µg/mL (≈ 2.28 µM).

Q: And the MIC (Pseudomonas aeruginosa)?
A: Its MIC is 63 µg/mL (≈ 180 µM).

Q: What about the MIC (Pseudomonas fluorescens [2]) of the same compound?
A: Its MIC is 0.05 µg/mL (≈ 0.143 µM).

Q: What about the MIC [9] of the same compound?
A: Its MIC is < 2 µg/mL.

Q: And the MIC [10]?
A: The MIC was < 2 µg/mL.

Q: What about the MIC (Pseudomonas fluorescens [3]) of the same compound?
A: Its MIC is 0.05 µg/mL (≈ 0.143 µM).

Q: What about the MIC (Aspergillus niger [18]) of the same compound?
A: The MIC was 0.4 µg/mL (≈ 1.14 µM).

Q: And the MIC (Phytophthora capsici)?
A: Its MIC is 0.2 µg/mL (≈ 0.571 µM).

Q: And the MIC (Staphylococcus aureus [8])?
A: Its MIC is < 0.13 µg/mL.

Q: What about the MIC (Staphylococcus aureus [19]) of the same compound?
A: Its MIC is 0.2 µg/mL (≈ 0.571 µM).

Q: What about the MIC (Pseudomonas fluorescens [4]) of the same compound?
A: The MIC was 0.025 µg/mL (≈ 0.0714 µM).

Q: What does the source list for `O=C1c2ccccc2C(=O)c2c(NCC(Br)CO)ccc(NCC(Br)CO)c21` (stereo not given)?
A: MIC (Pseudomonas fluorescens [1]): 50 µg/mL (≈ 97.6 µM); MIC (Pseudomonas fluorescens [2]): 0.2 µg/mL (≈ 0.39 µM); MIC (Pseudomonas fluorescens [3]): 0.4 µg/mL (≈ 0.781 µM); MIC (Pseudomonas fluorescens [4]): 100 µg/mL (≈ 195 µM)

Q: What does the source list for `CCCCNC(=O)OC#CCI`?
A: MIC (Pseudomonas fluorescens [1]): 0.2 µg/mL (≈ 0.712 µM); MIC (Aureobasidium pullulans [20]): 0.1 µg/mL (≈ 0.356 µM); MIC (Amorphotheca resinae [21]): 25 µg/mL (≈ 88.9 µM); MIC (Talaromyces funiculosus): 0.8 µg/mL (≈ 2.85 µM); MIC (Chaetomium globosum [22]): 1.6 µg/mL (≈ 5.69 µM); MIC (Pseudomonas fluorescens [2]): 50 µg/mL (≈ 178 µM); MIC (Aspergillus niger [18]): 1.6 µg/mL (≈ 5.69 µM); MIC (Pseudomonas fluorescens [23]): 50 µg/mL (≈ 178 µM)

Q: How did the MIC (Pseudomonas fluorescens [6]) turn out when `CCCCCCCCn1sc(Cl)c(Cl)c1=O` was run?
A: The MIC was < 0.2 µg/mL.

Q: Which results are given for `COCC(=O)N(c1c(C)cccc1C)C(C)C(=O)OC` (stereo not given) [METALAXYL]?
A: EC50 (Globisporangium ultimum): 0.017 p.p.m.; MIC (Phytophthora capsici): 0.4 µg/mL (≈ 1.43 µM)
